In PubChem BioAssay AID1918952 (Molecular Pharmacology Branch, DTP, NCI, 2023):
Values joined by “and” are separate entries in the source; they are usually repeats but may differ in a detail not shown here. Equal values may be shown once.

System: LG0703-F948-PDC complex spheroid viability
Test: Anticancer human tumor LG0703-F948-PDC patient-derived lung adenocarcinoma cell line growth inhibition
Conditions: for viability, T/C: stronger effect = lower value
Method in brief: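 Multicellular complex spheroids of tumor cells with human endothelial cells (HUVEC) and mesenchymal stem cells; the LSD1 inhibitor iadademstat was combined with standard-of-care or investigational agents. Top concentration at or near clinical Cmax, half-log dilutions; final DMSO ≤0.25%.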

[1] = curve of first compound, second compound 0.1 µM
[2] = curve of first compound, second compound 0.316 µM
[3] = curve of first compound, second compound 1 µM
[4] = curve of first compound, second compound 3.16 µM
[5] = curve of first compound, second compound 10 µM
[6] = second compound 0.1 µM, first compound 0.00949 µM
[7] = second compound 0.1 µM, first compound 0.03 µM
[8] = second compound 0.1 µM, first compound 0.0949 µM
[9] = second compound 0.1 µM, first compound 0.3 µM
[10] = second compound 0.316 µM, first compound 0.00949 µM
[11] = second compound 0.316 µM, first compound 0.03 µM
[12] = second compound 0.316 µM, first compound 0.0949 µM
[13] = second compound 0.316 µM, first compound 0.3 µM
[14] = second compound 1 µM, first compound 0.00949 µM
[15] = second compound 1 µM, first compound 0.03 µM
[16] = second compound 1 µM, first compound 0.0949 µM
[17] = second compound 1 µM, first compound 0.3 µM
[18] = second compound 3.16 µM, first compound 0.00949 µM
[19] = second compound 3.16 µM, first compound 0.03 µM
[20] = second compound 3.16 µM, first compound 0.0949 µM
[21] = second compound 3.16 µM, first compound 0.3 µM
[22] = second compound 10 µM, first compound 0.00949 µM
[23] = second compound 10 µM, first compound 0.03 µM
[24] = second compound 10 µM, first compound 0.0949 µM
[25] = second compound 10 µM, first compound 0.3 µM
[26] = second compound 0.1 µM, first compound 0.0316 µM
[27] = second compound 0.1 µM, first compound 0.1 µM
[28] = second compound 0.1 µM, first compound 0.316 µM
[29] = second compound 0.1 µM, first compound 1 µM
[30] = second compound 0.316 µM, first compound 0.0316 µM
[31] = second compound 0.316 µM, first compound 0.1 µM
[32] = second compound 0.316 µM, first compound 0.316 µM
[33] = second compound 0.316 µM, first compound 1 µM
[34] = second compound 1 µM, first compound 0.0316 µM
[35] = second compound 1 µM, first compound 0.1 µM
[36] = second compound 1 µM, first compound 0.316 µM
[37] = second compound 1 µM, first compound 1 µM
[38] = second compound 3.16 µM, first compound 0.0316 µM
[39] = second compound 3.16 µM, first compound 0.1 µM
[40] = second compound 3.16 µM, first compound 0.316 µM
[41] = second compound 3.16 µM, first compound 1 µM
[42] = second compound 10 µM, first compound 0.0316 µM
[43] = second compound 10 µM, first compound 0.1 µM
[44] = second compound 10 µM, first compound 0.316 µM
[45] = second compound 10 µM, first compound 1 µM
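Note: spheroids exposed to agents for seven days before readout.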
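Throughout, for viability, T/C: 100% = DMSO vehicle control wells as normalization base.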

Work on `NS(=O)(=O)OCC1CC(n2ccc3c(NC4CCc5ccccc54)ncnc32)CC1O` (configuration not stated) + NC1CCC(NC2CC2c2ccccc2)CC1 yielded an IC50 [1] of 546 nM, an IC50 [2] of 607 nM and an IC50 [3] of 670 nM. For the same molecule, the IC50 [4] was 633 nM, the IC50 [5] was 467 nM and the viability, T/C [6] was 106%. For the same molecule, the viability, T/C [7] was 111%, the viability, T/C [8] was 106% and the viability, T/C [9] was 70.7%. The viability, T/C (second compound 0.1 µM, first compound 0.949 µM) was 31.4%, the viability, T/C (second compound 0.1 µM, first compound 3 µM) was 19.1% and the viability, T/C [10] was 111%. The viability, T/C [11] was 123%, the viability, T/C [12] was 109% and the viability, T/C [13] was 80.5%. For the same molecule, the viability, T/C (second compound 0.316 µM, first compound 0.949 µM) was 30.7%, the viability, T/C (second compound 0.316 µM, first compound 3 µM) was 17.1% and the viability, T/C [14] was 113%. The viability, T/C [15] was 144%, the viability, T/C [16] was 105% and the viability, T/C [17] was 83.3%. The viability, T/C (second compound 1 µM, first compound 0.949 µM) was 35.9%, the viability, T/C (second compound 1 µM, first compound 3 µM) was 16.2% and the viability, T/C [18] was 124%. The viability, T/C [19] was 141%, the viability, T/C [20] was 112% and the viability, T/C [21] was 82.5%. It also gave a viability, T/C (second compound 3.16 µM, first compound 0.949 µM) of 32.4%, a viability, T/C (second compound 3.16 µM, first compound 3 µM) of 13.6% and a viability, T/C [22] of 124%. It also gave a viability, T/C [23] of 124%, a viability, T/C [24] of 124% and a viability, T/C [25] of 69.3%. It also gave a viability, T/C (second compound 10 µM, first compound 0.949 µM) of 20.4% and a viability, T/C (second compound 10 µM, first compound 3 µM) of 8.21%.
With `Nc1ncn(C2CC(O)C(CO)S2)c(=O)n1` (configuration not stated) the viability, T/C (compound 0.000949 µM) was 91.3% and 115%, the viability, T/C (compound 0.003 µM) was 118% and 98.8% and the viability, T/C (compound 0.00949 µM) was 95.8% and 96.4%. The viability, T/C (compound 0.03 µM) was 112% and 99.8%, the viability, T/C (compound 0.0949 µM) was 111% and 96.1% and the viability, T/C (compound 0.3 µM) was 84.7% and 78.1%. The IC50 (curve of compound) was over 300 nM.
Molecule `CCc1c2c(nc3ccc(O)cc13)-c1cc3c(c(=O)n1C2)COC(=O)[C@]3(O)CC` + NC1CC1c1ccc(-c2cccc(O)c2)cc1 has an IC50 [1] of 1.2 nM, an IC50 [2] of 1.31 nM and an IC50 [3] of 2.33 nM. For the same molecule, the IC50 [4] was 3.09 nM, the IC50 [5] was 2.61 nM and the viability, T/C (second compound 0.1 µM, first compound 0.000949 µM) was 55.8%. For the same molecule, the viability, T/C (second compound 0.1 µM, first compound 0.003 µM) was 29.2%, the viability, T/C [6] was 21.3% and the viability, T/C [7] was 11.7%. The viability, T/C [8] was 5.98%, the viability, T/C [9] was 3.08% and the viability, T/C (second compound 0.316 µM, first compound 0.000949 µM) was 54.8%. For the same molecule, the viability, T/C (second compound 0.316 µM, first compound 0.003 µM) was 37.7%, the viability, T/C [10] was 24.2% and the viability, T/C [11] was 12.6%. For the same molecule, the viability, T/C [12] was 5.51%, the viability, T/C [13] was 2.54% and the viability, T/C (second compound 1 µM, first compound 0.000949 µM) was 68.2%. The viability, T/C (second compound 1 µM, first compound 0.003 µM) was 44.7%, the viability, T/C [14] was 25.4% and the viability, T/C [15] was 11.7%. It also gave a viability, T/C [16] of 5.78%, a viability, T/C [17] of 2.05% and a viability, T/C (second compound 3.16 µM, first compound 0.000949 µM) of 69.9%. The viability, T/C (second compound 3.16 µM, first compound 0.003 µM) was 49.7%, the viability, T/C [18] was 29.8% and the viability, T/C [19] was 12.2%. It also gave a viability, T/C [20] of 2.96%, a viability, T/C [21] of 1.53% and a viability, T/C (second compound 10 µM, first compound 0.000949 µM) of 68.4%. It also gave a viability, T/C (second compound 10 µM, first compound 0.003 µM) of 47.3%, a viability, T/C [22] of 23.1% and a viability, T/C [23] of 8%. The viability, T/C [24] was 1.01% and the viability, T/C [25] was 0.49%.
With `CC1COCCN1c1cc(C2(S(C)(=N)=O)CC2)nc(-c2ccnc3[nH]ccc23)n1` (configuration not stated) + NC1CC1c1ccc(-c2cccc(O)c2)cc1 the IC50 [1] was 5000 nM, the IC50 [2] was 4650 nM and the IC50 [3] was 5240 nM. The IC50 [4] was 3550 nM, the IC50 [5] was 3920 nM and the viability, T/C [26] was 120%. The viability, T/C [27] was 104%, the viability, T/C [28] was 92.9% and the viability, T/C [29] was 92.1%. The viability, T/C (second compound 0.1 µM, first compound 3.16 µM) was 69.7%, the viability, T/C (second compound 0.1 µM, first compound 10 µM) was 24.1% and the viability, T/C [30] was 111%. For the same molecule, the viability, T/C [31] was 101%, the viability, T/C [32] was 118% and the viability, T/C [33] was 97%. It also gave a viability, T/C (second compound 0.316 µM, first compound 3.16 µM) of 63.8%, a viability, T/C (second compound 0.316 µM, first compound 10 µM) of 23.6% and a viability, T/C [34] of 111%. It also gave a viability, T/C [35] of 97.9%, a viability, T/C [36] of 113% and a viability, T/C [37] of 102%. It also gave a viability, T/C (second compound 1 µM, first compound 3.16 µM) of 70.8%, a viability, T/C (second compound 1 µM, first compound 10 µM) of 23.4% and a viability, T/C [38] of 96%. The viability, T/C [39] was 89.8%, the viability, T/C [40] was 102% and the viability, T/C [41] was 79.5%. For the same molecule, the viability, T/C (second compound 3.16 µM, first compound 3.16 µM) was 54.1%, the viability, T/C (second compound 3.16 µM, first compound 10 µM) was 22.4% and the viability, T/C [42] was 96.5%. It also gave a viability, T/C [43] of 98.9%, a viability, T/C [44] of 91.1% and a viability, T/C [45] of 79.7%. It also gave a viability, T/C (second compound 10 µM, first compound 3.16 µM) of 58.6% and a viability, T/C (second compound 10 µM, first compound 10 µM) of 14.8%.
With `O=C(C=Cn1cnc(-c2cc(C(F)(F)F)cc(C(F)(F)F)c2)n1)NNc1cnccn1` + NC1CCC(NC2CC2c2ccccc2)CC1 the IC50 [1] was under 3.16 nM, the IC50 [2] was under 3.16 nM and the IC50 [3] was 9.15 nM. The IC50 [4] was 29 nM, the IC50 [5] was under 3.16 nM and the viability, T/C (second compound 0.1 µM, first compound 0.00316 µM) was 45.3%. It also gave a viability, T/C (second compound 0.1 µM, first compound 0.01 µM) of 50.8%, a viability, T/C [26] of 37.8% and a viability, T/C [27] of 33%. The viability, T/C [28] was 30.6%, the viability, T/C [29] was 25.1% and the viability, T/C (second compound 0.316 µM, first compound 0.00316 µM) was 47.3%. For the same molecule, the viability, T/C (second compound 0.316 µM, first compound 0.01 µM) was 47.5%, the viability, T/C [30] was 43.8% and the viability, T/C [31] was 31.8%. It also gave a viability, T/C [32] of 33%, a viability, T/C [33] of 33.9% and a viability, T/C (second compound 1 µM, first compound 0.00316 µM) of 56.6%. It also gave a viability, T/C (second compound 1 µM, first compound 0.01 µM) of 50.1%, a viability, T/C [34] of 44.5% and a viability, T/C [35] of 37.6%. For the same molecule, the viability, T/C [36] was 29.7%, the viability, T/C [37] was 33.8% and the viability, T/C (second compound 3.16 µM, first compound 0.00316 µM) was 58.4%. For the same molecule, the viability, T/C (second compound 3.16 µM, first compound 0.01 µM) was 57.2%, the viability, T/C [38] was 48.3% and the viability, T/C [39] was 41.1%. It also gave a viability, T/C [40] of 32.8%, a viability, T/C [41] of 30.2% and a viability, T/C (second compound 10 µM, first compound 0.00316 µM) of 41.7%. It also gave a viability, T/C (second compound 10 µM, first compound 0.01 µM) of 45.7%, a viability, T/C [42] of 45.7% and a viability, T/C [43] of 44.9%. The viability, T/C [44] was 37.4% and the viability, T/C [45] was 23.5%.
